Values quoted from earlier work in patent US20100104643A1, “PHARMACEUTICAL COMPOSITIONS” (ZYSIS LIMITED, priority 2007, published 2010).

What was measured:
[1] = for dose-concentration relationship: plasma concentrations
[2] = trimipramine antidepressant treatment

Structure (SMILES): CNCC(C)CN1c2ccccc2CCc2ccccc21 (stereo not drawn) [desmethyltrimipramine]
- dose-concentration relationship [1]: deviation from linearity within the therapeutic dose range
- upper limit of the therapeutic trough plasma concentrations [2]: 0.38 mg/L

Structure (SMILES): CC(CN(C)C)CN1c2ccccc2CCc2ccccc21 (stereo not drawn) [trimipramine, 10,11-Dihydro-5-(3-dimethylamino-2-methylpropyl)-5H-dibenz(b,f) azepine]
- bioavailability difference between poor and ultra-fast metabolizers ([1]; CYP2D6 genotypes): 6 fold
- mean systemic clearances, ultrarapid metabolizers of CYP2D6 substrates versus poor metabolizers ([1]; higher in ultrarapid than in poor metabolizers): 2.5 fold
- dose-concentration relationship [1]: linear dose-concentration relationship for doses up to 150 mg
- total oral clearance, low extreme ([1]; poor metabolizer group): 3.5 L/h
- difference in total oral clearance ([1]; poor versus ultrarapid CYP2D6 metabolizers): about 15 fold
- total oral clearance, high extreme ([1]; ultrarapid metabolizer group): 712.6 L/h
- upper limit of the therapeutic trough plasma concentrations [2]: 0.24 mg/L
